Several values for one entry are separate records, joined by “and”; a condition that tells them apart may be missing. Equal values may be shown once. Read-outs that look alike come from different tables or passages of the source. Bridges are numbered along the chain shown (N, C = ends).
Tests used:
[1] = test system: LOS purified from N. gonorrhoeae strain 15253; assay type: in vivo; conditions: for mean anti-LOS IgG level: n=13
[2] = test system: N. gonorrhoeae strain FA1090; experiment: Mouse vaginal colonization model (protection experiment); assay type: in vivo; conditions: BALB/c n=14/group; TMCP2 50 μg + GLA-SE, 3 doses 2 weeks apart
Experimental: Use of animals in this study was performed in strict accordance with the recommendations in the Guide for the Care and Use of Laboratory Animals of the National Institutes of Health. The protocol was approved by the Institutional Animal Care and Use Committee (IACUC) at the University of Massachusetts Medical School. The BALB/c mouse model of vaginal colonization described by Jerse was used (25). Two weeks after the last immunization, mice in the diestrus phase of the estrous cycle were started on treatment (that day) with 0.1 mg PREMARIN® (Pfizer; a mixture of sodium estrone sulfate and sodium equilin sulfate also containing sodium sulfate conjugates of 17α-dihydroequilin, 17α-estradiol and 17β-dihydroequilin) in 200 μl of water, given subcutaneously on each of three days; −2, 0 and +2 days (before, the day of and after gonococcal inoculation) to prolong the estrus phase of the reproductive cycle and promote susceptibility to N. gonorrhoeae infection. […]
Experiments that compared clearance of N. gonorrhoeae in independent groups of mice estimated and tested three characteristics of the data (13): 1) time to clearance; 2) longitudinal trends in mean log10 CFU; 3) and the cumulative CFU as area under the curve (AUC). […] A quadratic or cubic function in time was determined to provide the best fit; random slopes were linear in time. […]

mAb 2C7 = experiment: Inhibition ELISA: inhibition of mAb 2C7 binding to immobilized gonococcal LOS
Description: FIGS. 1A-1B show the structure and characterization of one of the peptide mimics described herein (also referred to as TMCP2). […] The 2C7 mimitope is indicated in shown as the sequence “H2C-CO-GPIPVLDENGLFAPGPC” (SEQ ID NO: 1) Cyclization is maintained through a thioether bond. The reverse peptide mimic core is represented the schematic of the peptide mimic as “Ac-β-Ala-Glu[Glu-OH]2.” The reverse peptide mimic core links to each cyclic peptide through a lysine (K) residue.
In order to compare antigenicity of peptide mimic Core Peptide 2 (monomeric cyclic CP2) and composite TMCP2 compounds with LOS that expresses the 2C7 epitope, inhibition ELISA was performed using mAb 2C7 reacted with the individual compounds to assess inhibition of binding (residual binding) of mAb to LOS by each compound. Microtiter wells were coated with LOS (80 μg/ml in PBS) purified from strain FA1090. Wells were washed and blocked with PBS-0.05% Tween 20. mAb 2C7 (0.04 μg/ml) either alone or containing monomeric cyclic peptide CP2 (1.07 to 1070 μM) or composite TMCP2 (concentrations ranging from […]) was dispended into LOS coated wells. Residual binding of 2C7 mAb was measured with anti-mouse IgG conjugated to alkaline phosphatase. Bound IgG was quantitated using a mouse IgG standard curve and percent inhibition determined compared to reaction mixtures that […].
Attempts to measure mAb 2C7 (7) binding directly to immobilized peptide mimic Core Peptide 2 (abbreviated CP2 in FIG. 1A) and composite TMCP2 by ELISA were not successful. The possibility of poor capture of the peptides by the microtiter wells was considered and therefore used an ELISA to measure inhibition of binding (residual binding) of mAb 2C7 to immobilized gonococcal LOS that had been reacted with increasing concentrations of the peptides (FIG. 1B).

N. gonorrhoeae MS11 = experiment: Serum bactericidal assay, immune mouse sera plus human complement; assay type: cell-based; conditions: for killing of MS11, all 13 immune sera: 50 μg/dose schedule
Experimental: Because earlier it was observed that sera from naïve and mice given adjuvant alone manifest bactericidal activity mediated by IgM, mouse IgM was depleted from all sera collected as part of immunization studies. Sera from mice diluted 1:1 in PBS was mixed with anti-mouse IgM agarose (Sigma; binding capacity ≥0.4 mg/ml) (1 volume of packed agarose to 1 volume of serum diluted 1:1) in a 2.0 ml microspin filter column (Costar) with a pore size of 0.22 μM) for 15 min at 22° C. Filter-sterilized IgM depleted sera were collected by centrifugation of the mixture at 1000 g for 2 min and heat-inactivated (56° C. for 30 min) to eliminate intrinsic complement activity in mouse serum prior to use in serum bactericidal assays where human complement was substituted.
Serum bactericidal assays were performed. Bacteria that had been harvested from an overnight culture on chocolate agar plates were repassaged onto fresh chocolate agar and allowed to grow for 6 h at 37° C. in an atmosphere containing 5% CO2. Bacteria were then suspended in HBSS containing 1 mM MgCl2 and 0.15 mM CaCl2) (HBSS++) for use in serum bactericidal assays. Briefly, about 2000 colony forming units (CFUs) of N. gonorrhoeae FA090 were incubated with serial dilutions of immune mouse sera (heat-inactivated and IgM-depleted) in the presence or absence of 20% normal human serum (NHS) as a source of human complement. Serum bactericidal assays with strain MS11 were performed with IgG and IgM depleted NHS (Human complement; Pel-Freez) because this strain is susceptible to killing by NHS. Final volumes of bactericidal reaction mixtures were 150 μl. Aliquots of 25-μl reaction mixtures were plated onto chocolate agar in duplicate at the beginning of the assay (to) and again after incubation at 37° C. for 30 min (t30). Survival was calculated as the number of viable colonies at t30 relative to t0.

[3] = TMCP2 50 μg + GLA-SE, 3 doses 2 weeks apart, 11 mice

[(CH2-CO-GPIPVLDENGLFAPGPC)-K-OH]4 ({CH2CO}-GPIPVLDENGLFAPGPCK-OH; thioether N-17; also: tetrameric MAP) [TMCP2]
anti-LOS IgG in vaginal swabs ([1]; 5 mice, TMCP2 50 μg/dose + GLA-SE at 0, 2, 4 weeks, 2 weeks after third dose): detected | anti-LOS IgG levels in intact immune sera, all mice ([1]; BALB/c, n=13 per group, TMCP2 50, 100 or 200 μg/dose + GLA-SE, 3 weeks apart): exceeded 2 μg/ml | anti-LOS IgG response in 3 of 5 mice ([1]; BALB/c, TMCP2 50 μg dose + GLA-SE, 3 doses): exceeded 10 μg/ml | anti-LOS IgG response, every mouse ([1]; BALB/c, TMCP2 50, 100 or 200 μg + GLA-SE, 3 doses 3 weeks apart, two weeks after final boosting): exceeded 2 μg/ml | mean anti-LOS level, post-dose 3 immune sera [1, 3]: 2.31 µg/mL | range of anti-LOS level, post-dose 3 immune sera [1, 3]: 1.33 to 3.59 µg/mL | mean anti-LOS IgG level ([1]; TMCP2 50 μg/dose + GLA-SE, 3 doses 3 weeks apart): 4.98 µg/mL | mean anti-LOS IgG level ([1]; TMCP2 100 μg/dose + GLA-SE, 3 doses 3 weeks apart): 4.06 µg/mL | mean anti-LOS IgG level ([1]; TMCP2 200 μg/dose + GLA-SE, 3 doses 3 weeks apart): 3.8 µg/mL | IgM response to the 2C7 epitope ([1]; pooled post-dose 3 sera, IgM binding to 15253 LOS vs 15253 ΔlgtG LOS): no apparent IgM response | anti-LOS titers in immunization experiments ([1]; tetrapeptides 50 μg/dose plus Sigma MPL adjuvant, BALB/c, FIG. 10): higher anti-LOS titers than TMCP4 | gonococcal colonization, biweekly schedule [2]: effectively attenuated gonococcal colonization | fold lower molar concentration of TMCP2 (compared to CP2) required to achieve 50% inhibition (mAb 2C7): ~4 fold | IC50 (mAb 2C7; mAb 2C7 0.04 μg/ml, LOS-coated wells, read-out: concentration giving 50% inhibition of mAb 2C7 binding to immobilized 15253 LOS): 25 µM | killing of MS11, all 13 immune sera (N. gonorrhoeae MS11; immune serum 3.3%): > 60% | killing of MS11, all 13 immune sera (N. gonorrhoeae MS11; immune serum 6.7%): > 98% | complement-dependent killing of MS11, all sera in each group (N. gonorrhoeae MS11; 13 sera per group after 3rd dose, 16.7% (1/6 dilution)): > 50% | Survival in intact immune serum (N. gonorrhoeae MS11; Table 6, TMCP2 50 μg/dose + GLA-SE, immune serum 6.7% (1/15), 6.7% IgG/IgM-depleted NHS (Pel-Freez)): 0.00% and 1.52% and 0.47% and 0.93%
